Measurements as given in patent publication US10624887B2, “Compositions of (-)-17-(cyclobutylmethyl)morphinan-3,14,-diol” (priority 2010, dated 2020).
Like-named read-outs stand apart in the source and are kept apart here.

Columns and labels:
[1] = oral; dosage form that models extended release
[2] = cited from earlier work; for duration of analgesic effect (median time to requesting rescue analgesia): acute postsurgical pain
[3] = system: streptozotocin (STZ) induced diabetes neuropathy; test: Streptozotocin induced diabetic neuropathy, cold allodynia (acetone drop test); type: in vivo, Wistar rats; conditions: STZ diabetic neuropathic rats
Experimental: The aim of this study was to evaluate the effect of oral administration of butorphanol in rats with streptozotocin (STZ) induced diabetes neuropathy. A single injection of streptozotocin (STZ) (40-70 mg/kg, i.p.) was used to induce diabetes in rats. The primary measurements were made mechanical and thermal allodynia designed to detect effects of the treatment(s) on neuropathic pain.
Wistar rats weighing 250±20 g were maintained on standard laboratory diet and having free access to tap water ad lib were employed in the present study. They were housed in the animal house and were exposed to 12 hr cycle of light and dark. The experiments were conducted in a semi-sound proof laboratory. Care of the animals was in accordance with guidelines for experimentation on animals.
The STZ-induced diabetes model was adapted from Arison et al (1967).
On the experimental day 1 all rats were fasted 6-8 hrs prior to STZ treatment Immediately prior to the injection, STZ was dissolved in 50 Mm sodium citrate buffer (pH 4.5) to a final concentration of 10 mg/ml. […]
For the assessment of cold allodynia, which was stable for 3 weeks, the rats were placed on a wire mesh covered with a plastic dome and were allowed to habituate until the exploratory behavior diminished. Cold allodynia was measured as the number of foot withdrawal responses after application of stimuli to the plantar surface of the paw. […] Acetone was applied two times (once every 5 min) on the left paw, and the number of reactions (shaking, tapping, or licking) was counted during 30 sec. […] The score was expressed as accumulated numbers of reactions over the trials and determined before and 30 and 60 min after administration of the test drugs. Each individual test was expressed as a percentage of maximum possible effect (% MPE): […]
MPE (%) at 30 min time point was employed as a quantitative measure of the analgesic effect of the test drugs.
The anti-nociceptive effect was plotted assessed having time (relative to dosing time point) on the x-axis and percent maximum possible effect (% MPE) on the y-axis. […]

[4] = cited from earlier work
nociception in rats = test: Eddy's hot plate test; type: in vivo, Wistar rats; conditions: butorphanol 1 mg/kg
Experimental: Heat is often used as a noxious stimulus in models of pain. Typically, the latency of the rat's response to the thermal stimulus is recorded as the dependent variable. To determine whether a test compound has analgesic properties, the latency responses of treated and control rats are evaluated. […] The latency of response will vary depending on the type of heat stimulus used. In the hot-plate assay, the rat is placed on a heated surface and the latency for the rat to respond to the stimulus, by licking its paw or jumping, is recorded. […]
Three groups were employed in the present study with each group comprising of 8 animals. […] Hot plate latency was assessed at 0, 30, 45 and 60 minutes after administration of the butorphanol. Area under the curve was calculated using a graph between % MPE and time. Area under the curve was employed as a quantitative measure of the analgesic effect of the treatments.
Nociceptive threshold was measured with the Eddy's hot plate test. […] Reaction time is expressed as a percentage of the maximum possible effect (MPE): […]
The anti-nociceptive effect following intragastric, intra-ileal and intra-colonic administration was assessed in terms of area under the curve calculated from a graph having time (relative to dosing time point) on the x-axis and percent maximum possible effect (% MPE) on the y-axis. The results were expressed as mean±standard error of means (S.E.M.). […]

## Oc1ccc2c(c1)[C@@]13CCCC[C@@]1(O)[C@@H](C2)N(CC1CCC1)CC3 [butorphanol, (−)17-(Cyclobutylmethyl)morphinan-3,14-diol]
[1]
  therapeutic effect: robust therapeutic effects
[2]; 1 mg intranasal dose
  duration of analgesic effect (median time to requesting rescue analgesia): less than 2 hours
  subjects requiring rescue analgesia during the first 6 hours of observation: about 90%
[2]; 2 mg intranasal dose
  duration of analgesic effect (median time to requesting rescue analgesia): less than 2 hours
  subjects requiring rescue analgesia during the first 6 hours of observation: about 80%
[3]; oral 1, 3, 10, 30 mg/kg, FIG. 20
  cold allodynia score: dose dependent decrease
[3]; oral
  cold allodynia withdrawal threshold in comparison to the control readings: significant increase
  time of peak effect post-administration (cold allodynia): 30 min
[4]; in vivo
  mean half-life: about 5 hours
[4]; widely reported
  oral bioavailability: poor
Nociception in rats; hot plate, FIG. 14
  antinociceptive effect (area under the curve of % MPE vs time), intra-colonic versus intra-gastric or intra-ileal: significantly greater antinociceptive effect
Nociception in rats; intra-gastric, intra-ileal and intra-colonic administration, each, rats
  hot plate latency: significant increase
